How the values were obtained:
Type in all cases: cell-based
[1] = target: T1, hPPARdelta (Homo sapiens, UniProt Q03181); experiment: PPAR activation: Gal4-hPPARδ chimera luciferase transactivation in COS-7 cells, Method 1; details: COS-7, 24 h; for Emax: maximum percentage response relative to the reference GW501516, read-out: hPPARdelta % max
T1 construct: expressed in transfected cells; host or cells: COS-7 (monkey kidney fibroblasts)
T1 sequence (Q03181 211-439 limits assumed): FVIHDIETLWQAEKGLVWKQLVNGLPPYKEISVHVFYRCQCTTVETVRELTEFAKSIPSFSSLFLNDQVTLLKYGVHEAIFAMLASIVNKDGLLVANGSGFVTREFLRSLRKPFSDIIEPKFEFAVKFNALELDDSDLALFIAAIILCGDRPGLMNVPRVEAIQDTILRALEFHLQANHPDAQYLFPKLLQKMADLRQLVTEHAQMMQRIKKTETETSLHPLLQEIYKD
Method in brief: (§1)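 COS-7 cells transiently transfected with Gal4 DBD–human PPAR LBD (DEF domain) chimeras plus Gal4(RE)_TkpGL3 luciferase reporter (1/10 ratio). Compounds applied 24 h at 37 °C in serum-free medium at doses between 10^−5 and […]; luciferase read after lysis, EC50 derived.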

[2] = target: T2, hPPARgamma (Homo sapiens, UniProt P37231); experiment: PPAR activation: Gal4-hPPARγ chimera luciferase transactivation in COS-7 cells, Method 1; details: COS-7, 24 h; for Emax: maximum percentage response relative to the reference rosiglitazone, read-out: hPPARgamma % max
T2 construct: expressed in transfected cells; host or cells: COS-7 (monkey kidney fibroblasts)
T2 sequence (P37231 238-503 limits assumed): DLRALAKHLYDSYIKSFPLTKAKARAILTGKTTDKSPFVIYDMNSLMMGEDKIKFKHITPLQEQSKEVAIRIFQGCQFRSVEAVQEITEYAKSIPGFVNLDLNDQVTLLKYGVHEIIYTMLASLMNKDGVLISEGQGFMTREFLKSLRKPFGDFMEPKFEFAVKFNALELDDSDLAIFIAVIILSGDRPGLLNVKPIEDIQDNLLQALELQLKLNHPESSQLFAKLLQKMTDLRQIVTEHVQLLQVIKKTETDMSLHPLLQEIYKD
Method in brief: as §1

[3] = test system: ABCA1 gene in human macrophages (THP-1); experiment: Reverse cholesterol transport: expression of the ABCA1 gene in human macrophages; details: 24 h
Description: The effect of the compounds according to the invention on reverse cholesterol transport was evaluated by measuring the expression of the ABCA1 gene (ATP-binding cassette, sub-family A, member 1; membrane transporter involved in the efflux of cholesterol) in human macrophages. The more the expression of ABCA1 is increased, the greater the stimulating action of the compound according to the invention on reverse cholesterol transport.
The THP1 human monocyte line (obtained from ATCC) is cultivated in RPMI1640 medium with addition of 25 mM Hepes (Gibco; 42401-018), 1% glutamine (Gibco; 25030-24), 1% penicillin/streptomycin (Biochrom AG; A 2213) and 10% decomplemented fetal calf serum (FCS. Gibco; 26050-088).
The cells are seeded on 24-well plates (Primaria BD Falcon) at a density of 3·10^5 cells/well and incubated at 37° C. and 5% CO2 for 72 h in the presence of 30 ng/ml of phorbol 12-myristate 13-acetate (PMA) in order to differentiate them to macrophages. […]
1 μg of total RNA (quantified based on the spectrophotometer reading) was then reverse-transcribed to complementary DNA by reaction for 1 hour at 37° C. in a total volume of 30 μl containing buffer 1× (Invitrogen), 1.5 mM of DTT, 0.18 mM of dNTPs (Promega), 200 ng of pdN6 (Amersham), 30 U of RNase inhibitor (Promega) and 1 μl of MMLV-RT (Invitrogen).
The quantitative PCR experiments were carried out using the MyiQ Single-Color Real-Time PCR Detection System (Biorad, Marnes-la-Coquette, France) and were performed using the iQ SYBR Green Supermix kit following the supplier's recommendations, in 96-well plates, on 5 μl of diluted reverse transcription reaction mixtures with a hybridization temperature of 60° C. […]
The amount of fluorescence emitted is directly proportional to the amount of complementary DNA present at the start of the reaction and amplified during PCR. […] The relative expression levels of each target are thus determined using the efficacy curves obtained with the points in the range. […]

## CC(C)(Oc1ccc(CCC(=O)c2cc(-c3ccc(C(F)(F)F)cc3)cs2)c(Cl)c1Cl)C(=O)O [Compound 11, 2-(2,3-dichloro-4-(3-oxo-3-(4-(4-(trifluoromethyl)phenyl)thien-2-yl)propyl)phenoxy)-2-methylpropanoic acid]
[1]
  EC50: 0.003 µM
  Emax: 105%
[2]
  EC50: 1.17 µM
  Emax: 55%

## CC(C)(Oc1ccc(CCC(OCc2ccccc2)c2ccc(-c3ccc(C(F)(F)F)cc3)s2)c(Cl)c1Cl)C(=O)O (centres unmarked) [Compound 7, 2-(4-(3-(benzyloxy)-3-(5-(4-(trifluoromethyl)phenyl)thien-2-yl)propyl)-2,3-dichlorophenoxy)-2-methylpropanoic acid]
[3]; at 300 nM
  expression of the gene coding for ABCA1 in human macrophages: significant increase

## CC(C)(Oc1ccc(CCC(O)c2ccc(-c3ccc(C(F)(F)F)cc3)s2)c(Cl)c1Cl)C(=O)O (centres unmarked) [Compound 4, 2-(2,3-dichloro-4-(3-hydroxy-3-(5-(4-(trifluoromethyl)phenyl)thien-2-yl)propyl)phenoxy)-2-methylpropanoic acid]
[1]
  EC50: 0.034 µM
  Emax: 107%
[3]; at 1 μm
  expression of the gene coding for ABCA1 in human macrophages: significant increase
[2]
  Emax: 38%

## CC(C)(Oc1ccc(CCC(=O)c2ccc(-c3ccc(C(F)(F)F)cc3)s2)c(Cl)c1Cl)C(=O)O [Compound 2, 2-(2,3-dichloro-4-(3-oxo-3-(5-(4-(trifluoromethyl)phenyl)thien-2-yl)propyl)phenoxy)-2-methylpropanoic acid]
[1]
  EC50: 0.007 µM
  Emax: 91%
[3]; at 1 μm
  expression of the gene coding for ABCA1 in human macrophages: significant increase
[2]
  EC50: 0.06 µM
  Emax: 11%

Source: patent US8088819B2, “Derivatives of substituted 3-phenyl-1-(phenylthienyl)propan-1-ones and of 3-phenyl-1-(phenylfuranyl) propan-1-ones, preparation and use” (priority 2006, dated 2012)
